{"source": "patent US10502749B1", "about": "“Method for patient stratification and drug efficacy monitoring” (New York University, priority 2016, dated 2019)", "key": {"[1]": {"system": "Ras, dynamin, Grin2B, and mGlur5", "test": "Western blot of candidate proteins in brains of FXS and WT littermates after chronic S6K1 inhibitor treatment", "assay_type": "in vivo, mouse", "settings": "for Expression of candidate proteins (Ras, dynamin, Grin2B, mGlur5) in brain after treatment: FXS model mice, chronic treatment, 25 mg/kg i.p. daily for 10 days, western blot, 25 mg/kg", "experimental": "(§1) PF-4708671 was obtained from Sigma, Mo., USA. Littermate matched mice underwent 10 days of daily 25 mg/kg intraperitoneal injections of PF-4708671 in a vehicle consisting of saline +5% v/v of Tween-80 (Sigma). On day 10, 90 mins after the final injection mice were killed by cervical dislocation and the hippocampus was quickly dissected to yield whole hippocampal lysates. Simultaneously, trunk blood also was collected to monitor peripheral levels of proteins.\nThus, the candidates correlate with improved behavior in the brain. We therefore evaluated if they could be measured and quantified in a peripheral tissue such as blood. Animals were treated as described above with PF-4708671, then animals were euthanized via cervical dislocation and brain tissue was collected on ice and snap frozen. Lysates were then prepared as previously described (Bhattacharya et al, 2016, incorporated herein by reference) and analyzed by western blot.\nBrain tissues were obtained immediately following euthanasia, snap frozen and homogenized in lysis buffer containing protease and phosphatase inhibitors. Lysates were then analyzed using Western blotting and the levels of specific candidates was determined using densitometry and comparing them to a known loading control such as actin, Gapdh or transferrin receptor."}, "FXS model mice [2]": {"system": "FXS model mice", "settings": "cited from earlier work"}, "FXS model mice [3]": {"system": "FXS model mice", "settings": "cited from earlier work", "remark": "listed apart in the source"}, "FXS model mice [4]": {"system": "FXS model mice", "settings": "cited from earlier work", "remark": "listed apart in the source"}, "FXS model mice [5]": {"system": "FXS model mice", "settings": "cited from earlier work", "remark": "listed apart in the source"}, "Ras": {"system": "Ras", "test": "Concentration levels of mGluR and Ras in mouse trunk blood after 10 days of treatment", "assay_type": "in vivo", "experimental": "as §1\nFXS or wild type mice were treated with an S6K1 inhibitor, PF-4708671 (S6Ki) for 10 days. Concentration levels of the two markers—mGluR and Ras in mouse trunk blood treated with vehicle or the S6Ki were determined. N=3 animals per treatment per genotype were used. Statistical analyses was done using two-way ANOVA (genotype×treatment). P=0.0079 for interaction and p=0.019 for FXS±S6Ki and p=0.16 for WT±S6Ki."}}, "data": [{"smiles": "CCc1cncnc1N1CCN(Cc2nc3ccc(C(F)(F)F)cc3[nH]2)CC1", "note": "[PF-4708671]", "values": [{"measurement": "Ras in the brain of FXS mice after S6K1 inhibitor", "setting": "[1]; FXS mice, brain, FIG. 3", "result": "does not change"}, {"measurement": "Expression of candidate proteins (Ras, dynamin, Grin2B, mGlur5) in brain after treatment", "setting": "[1]", "result": "rescues expression of 3 protein candidates in brain"}, {"measurement": "Expression of candidate proteins (Ras, dynamin, Grin2B, mGlur5) in brain after treatment", "setting": "[1]; listed as S6K1 inhibitor", "result": "3 out of 4 are statistically improved"}, {"measurement": "Aberrant social novelty behavior, rescued by S6K1i", "setting": "FXS model mice [2]", "result": "Both inhibitors rescued"}, {"measurement": "Aberrant y-maze reversal learning, rescued by S6K1i", "setting": "FXS model mice [3]", "result": "Both inhibitors rescued"}, {"measurement": "Increased protein synthesis, rescued by S6K1i", "setting": "FXS model mice [4]", "result": "Both inhibitors rescued"}, {"measurement": "Aberrant spine morphology, rescued by S6K1i", "setting": "FXS model mice [5]", "result": "Both inhibitors rescued"}, {"measurement": "Ras level in trunk blood, greater than WT veh", "setting": "Ras; FXS mice, vehicle 10 days (printed as FXS+veh)", "result": 31, "unit": "%"}, {"measurement": "Ras level in trunk blood, average (+/-SD)", "setting": "Ras; FXS mice, vehicle 10 days, N=3 (printed as FXS+veh)", "result": "1.19±0.21"}, {"measurement": "Candidate proteins (mGluR, Ras) in FXS model mouse blood rescued by treatment", "setting": "Ras; FXS model mice, trunk blood, 10 days, listed as S6K1 inhibitor", "result": "one was rescued"}, {"measurement": "Ras level in trunk blood, less from WT veh", "setting": "Ras; WT mice, S6Ki 10 days", "result": 32, "unit": "%"}, {"measurement": "Ras level in trunk blood, average (+/-SD)", "setting": "Ras; WT mice, S6Ki 10 days, N=3", "result": "0.62±0.20"}]}]}
